Measurements from US8455505B2, “Pyrrolopyrimidinedione and its therapeutic use” (Chiesi Farmaceutici S.p.A., priority 2009, dated 2013).

Columns and labels:
human leukocyte elastase = target: T1, human leukocyte elastase (Homo sapiens, UniProt P08246); assay: Enzyme inhibition assay using fluorescent peptide substrate; type: biochemical; details: MeO-Suc-Ala-Ala-Pro-ValAMC substrate 100 μM, free base, means of two independent experiments
T1 construct: purchased Sigma E8140
T1 sequence (P08246 30-247 limits assumed): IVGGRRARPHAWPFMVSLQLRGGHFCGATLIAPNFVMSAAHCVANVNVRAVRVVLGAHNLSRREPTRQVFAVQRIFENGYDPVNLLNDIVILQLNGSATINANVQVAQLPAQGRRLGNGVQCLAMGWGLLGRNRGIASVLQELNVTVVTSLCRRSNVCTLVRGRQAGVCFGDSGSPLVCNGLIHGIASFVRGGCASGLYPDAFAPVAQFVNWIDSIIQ
Protocol: Using Fluorescent Peptide Substrate
Assays were performed in 96-well plates at a total assay volume of 100 μl. The final concentration of the enzyme (human leukocyte elastase, Sigma E8140) was 0.00036 units/well. A peptide substrate (MeO-Suc-Ala-Ala-Pro-ValAMC (SEQ ID NO: 1), Calbiochem #324745) was used, at the final concentration of 100 μM. The final concentration of DMSO was 1% in the assay buffer (0.05M Tris.HCl, pH 7.5, 0.1M NaCl; 0.1M CaCl2; 0.0005% brij-35).
The enzymatic reaction was started by adding the enzyme. The enzymatic reaction was performed at RT and after 30 mins stopped by adding 50 μl soybean trypsin inhibitor (Sigma T-9003) at a final concentration of 50 μg/well. Fluorescence was read on the FLEXstation (Molecular Devices) using 380 nm excitation and 460 nm emission filters. […] The results are means of two independent experiments, each performed in duplicate.
The results are means of two independent experiments, each performed in duplicate.

[1] = tested on: HNE Induced Lung Haemorrhage in the Rat; assay: HNE induced lung haemorrhage in the rat; type: in vivo; details: 100 μg/kg i.t., 6 hours prior to HNE, free base, statistically significant
Excerpt: HNE Induced Lung Haemorrhage in the Rat
Instillation of human neutrophil elastase (HNE) into rat lung causes acute lung damage. The extent of this injury can be assessed by measuring lung haemorrhage.
Male Sprague Dawley rats (175-220 g) were obtained from Harlan UK Ltd., full barrier-bred and certified free from specified micro-organisms on receipt. Animals were weighed and randomly assigned to treatment groups (7-12 animals to per group).
The vehicle used was 1% DMSO/Saline. Inhibitors were dissolved in 1% DMSO before the addition of 0.9% saline.
Animals in each study used to determine the efficacy of the elastase inhibitors delivered locally to the lung by a variety of routes. […]
Once defrosted 100 μl of each lysed cell suspension was placed into a separate well of a 96 well flat bottomed plate. […] The OD of the contents of each well was measured at 415 nm using a spectramax 250 (Molecular devices). […]
The amount of blood in each experimental sample was calculated by comparison to the standard curve. Data were then analysed as below: • 1) The mean OD for duplicates was calculated • 2) The value for the blank was subtracted from the value for all other samples • 3) Data were assessed to evaluate the normality of distribution.

[2] = PK assay: half life in the lung after intra-tracheal administration; type: in vivo; details: rat, other: intra-tracheal, 10 ug/kg; male Sprague-Dawley rats, single intra-tracheal dose 10 μg/Kg, lung homogenate; free base; read-out: terminal lung t1/2 (converted)
Protocol: Comparison of the Half Lives in the Lung of the Compound of the Invention and the Compound of Example 18 of WO2007/129060
Test material was formulated at 20 μg/mL in 0.2% Tween 80 in saline. Solutions were sonicated and warmed in a water bath at 40° C. prior to dosing. Male Sprague-Dawley rats received a single intra-tracheal administration of the test material via a Penn-Century dosing needle at the nominal dose level of 10 μg/Kg. After dosing five rats from each group were terminally anaesthetized with sodium pentobarbitone at 1, 2, 4, 8, 24, 72 and 96 hours for compound (IA) (free base) and 1, 4, 8, 24, 72, 96, 168, 264 and 336 for compound (II) (free base) post dose. Blood was sampled from the tail vein, following which the chest was opened, the animal exanguinated by perfusion and the lungs removed and snap frozen. After collection the blood samples were centrifuged (10000×g, 2 min at 4° C.). Plasma was removed and both stored frozen at −20° C. Rat lungs were homogenised in water (on ice) to give a ratio of 1 part lung:2 parts water (w/v). A 100 μL aliquot of each homogenate was extracted by addition of 200 μL acetonitrile containing an analytical internal standard. […]
Test material was analysed on a triple quadrupole mass spectrometer (AB Sciex API 3000) fitted with LC pump and autosampler (Reliance). Test material was detected in positive ion mode Turbo Ion Spray. […]

With `N#Cc1ccc([C@H]2NC(=O)N(c3cccc(C(F)(F)F)c3)C3=C2C(=O)N(CCCNCCCN2CC4=C(C2=O)[C@@H](c2ccc(C#N)nc2)NC(=O)N4c2cccc(C(F)(F)F)c2)C3)cn1` [Compound (IA)] the IC50 (human leukocyte elastase) was 8.4 nM, the “reduction in haemorrhage relative to control” value [1] was 95% and the half-life [2] was 1.54 days.
In the case of `N#Cc1ccc([C@H]2NC(=O)N(c3cccc(C(F)(F)F)c3)C3=C2C(=O)N(CCCNCCCN2CC4=C(C2=O)[C@@H](c2ccc(C#N)cc2)NC(=O)N4c2cccc(C(F)(F)F)c2)C3)cc1` [Compound (II)], the IC50 (human leukocyte elastase) is reported as 2.1 nM, the “reduction in haemorrhage relative to control” value [1] is reported as 88% and the half-life [2] is reported as 3.92 days.
